In patent publication US20120226186A1 (priority 2009, published 2012):

Experiments:
[1] = tested on: nociceptive flexor reflexes; details: Willer, 1985; cited from earlier work
[2] = all 20 subjects, i.v. computer-controlled infusion

Structure (SMILES)	reflex threshold of nociceptive flexor reflexes after application of the analgetic [1]	median effect compartment concentration at loss of reaction to repeated verbal commands ([2]; median) [µg/mL]	range of effect compartment concentration at loss of reaction to repeated verbal commands ([2]; range) [µg/mL]
CN1CC[C@]23c4c5ccc(O)c4O[C@H]2[C@@H](O)C=C[C@H]3[C@H]1C5 [morphine]	changed in a concentration dependent manner		
CC(C)c1cccc(C(C)C)c1O [propofol, 2,6-diisopropylphenol]		4	2 to 5
